The values that follow come from PubChem BioAssay AID1919005 (Molecular Pharmacology Branch, DTP, NCI, 2023).

Where “and” joins values, the source holds several entries; their conditions need not be identical. Equal values may be shown once.

This assay deals with 855422-203-R-J1-PDC complex spheroid growth. As to the kind of experiment: Anticancer human tumor 855422-203-R-J1-PDC patient-derived bladder carcinoma cell line growth inhibition [AhR]. The conditions noted are these: for viability, T/C: stronger effect = lower value. The procedure, abridged: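 Complex tumor spheroids co-cultured with HUVEC and human MSC stroma; AhR antagonists tested in combination with standard-of-care and investigational agents. Top concentration at or near clinical Cmax (else 10 microM), half-log dilutions; growth expressed as percent test/control.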

Where [1] appears, read: curve of first compound, second compound 0.1 µM.
Where [2] appears, read: curve of first compound, second compound 0.316 µM.
Setting [3] is: curve of first compound, second compound 1 µM.
Where [4] appears, read: curve of first compound, second compound 3.16 µM.
The mark [5] stands for this setting: curve of first compound, second compound 10 µM.
Where [6] appears, read: second compound 0.1 µM, first compound 0.00949 µM.
Where [7] appears, read: second compound 0.1 µM, first compound 0.03 µM.
Setting [8] is: second compound 0.1 µM, first compound 0.0949 µM.
Where [9] appears, read: second compound 0.1 µM, first compound 0.3 µM.
The mark [10] stands for this setting: second compound 0.1 µM, first compound 0.949 µM.
Where [11] appears, read: second compound 0.1 µM, first compound 3 µM.
[12] abbreviates: second compound 0.316 µM, first compound 0.00949 µM.
Setting [13] is: second compound 0.316 µM, first compound 0.03 µM.
The mark [14] stands for this setting: second compound 0.316 µM, first compound 0.0949 µM.
The mark [15] stands for this setting: second compound 0.316 µM, first compound 0.3 µM.
Setting [16] is: second compound 0.316 µM, first compound 0.949 µM.
Where [17] appears, read: second compound 0.316 µM, first compound 3 µM.
Setting [18] is: second compound 1 µM, first compound 0.00949 µM.
The mark [19] stands for this setting: second compound 1 µM, first compound 0.03 µM.
Setting [20] is: second compound 1 µM, first compound 0.0949 µM.
Where [21] appears, read: second compound 1 µM, first compound 0.3 µM.
The mark [22] stands for this setting: second compound 1 µM, first compound 0.949 µM.
The mark [23] stands for this setting: second compound 1 µM, first compound 3 µM.
Where [24] appears, read: second compound 3.16 µM, first compound 0.00949 µM.
[25] abbreviates: second compound 3.16 µM, first compound 0.03 µM.
Setting [26] is: second compound 3.16 µM, first compound 0.0949 µM.
The mark [27] stands for this setting: second compound 3.16 µM, first compound 0.3 µM.
The mark [28] stands for this setting: second compound 3.16 µM, first compound 0.949 µM.
[29] abbreviates: second compound 3.16 µM, first compound 3 µM.
Setting [30] is: second compound 10 µM, first compound 0.00949 µM.
Where [31] appears, read: second compound 10 µM, first compound 0.03 µM.
Where [32] appears, read: second compound 10 µM, first compound 0.0949 µM.
Setting [33] is: second compound 10 µM, first compound 0.3 µM.
Where [34] appears, read: second compound 10 µM, first compound 0.949 µM.
The mark [35] stands for this setting: second compound 10 µM, first compound 3 µM.
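Note: spheroids exposed to agents for seven days before readout.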
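Throughout, for viability, T/C: percent of DMSO vehicle control luminescence viability.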

One may read the viability, T/C as the result in the treated group divided by that in the control group, in per cent. By IC50 is commonly meant the concentration needed to halve the response being measured. In the case of `Cn1ncnc1C1c2n[nH]c(=O)c3cc(F)cc(c23)NC1c1ccc(F)cc1` (stereo not given), the viability, T/C reads like this: (compound 0.000316 µM) 98.3% and 105% and 99%; (compound 0.001 µM) 92.9% and 104% and 110%; (compound 0.00316 µM) 86.6% and 106% and 105%; (compound 0.01 µM) 104% and 98.8% and 103%; (compound 0.0316 µM) 99.4% and 102% and 95.6%; (compound 0.1 µM) 82.4% and 101% and 98.5%. Also, the IC50 (curve of compound) is > 100 nM.
Turning to `Nc1ccn(C2OC(CO)C(O)C2(F)F)c(=O)n1` (stereo not given), the viability, T/C is, setting by setting: (compound 0.0316 µM) 73.2% and 108% and 116%; (compound 0.1 µM) 24.6% and 89.1% and 98.4%; (compound 0.316 µM) 14.1% and 28.8% and 44%; (compound 1 µM) 15.1% and 17.2% and 34.1%; (compound 3.16 µM) 11.1% and 14.4% and 27.2%; (compound 10 µM) 7.1% and 9.36% and 17.2%. In addition, the IC50 (curve of compound) is 55 nM and 212 nM and 290 nM.
`CCN(c1cc(-c2ccc(CN3CCOCC3)cc2)cc(C(=O)NCc2c(C)cc(C)[nH]c2=O)c1C)C1CCOCC1` + Cc1ccccc1N=Nc1ccc(NC(=O)c2ccnn2C)c(C)c1: the IC50 is > 3000 nM under setting [1]; > 3000 nM under setting [2]; > 3000 nM under setting [3]; > 3000 nM under setting [4]; > 3000 nM under setting [5]. Further, the viability, T/C under setting [6] is 105%; the viability, T/C under setting [7] was 93.4%; the viability, T/C under setting [8] was 93.2%; the viability, T/C under setting [9] is 91.2%; the viability, T/C under setting [10] was 91.1%; the viability, T/C under setting [11] is 87.5%. The viability, T/C is, setting by setting: under setting [12], 93.7%; under setting [13], 93.2%; under setting [14], 92.6%; under setting [15], 97.3%; under setting [16], 87%; under setting [17], 85.3%. The viability, T/C is, setting by setting: under setting [18], 105%; under setting [19], 98.8%; under setting [20], 95.6%; under setting [21], 96.3%; under setting [22], 92.8%; under setting [23], 85.3%. Also, the viability, T/C was 91.3% under setting [24]; 90.2% under setting [25]; 84.3% under setting [26]; 87.1% under setting [27]; 83.6% under setting [28]; 82.3% under setting [29]. In addition, the viability, T/C under setting [30] is 84.2%; the viability, T/C under setting [31] was 76.8%; the viability, T/C under setting [32] was 79.8%; the viability, T/C under setting [33] was 77.8%; the viability, T/C under setting [34] is 71.3%; the viability, T/C under setting [35] was 72.4%.
Regarding `CC(C)CC(NC(=O)C(Cc1ccccc1)NC(=O)c1cnccn1)B(O)O` (stereo not given), the viability, T/C by setting is: (compound 0.000949 µM) 110% and 101% and 118%; (compound 0.00949 µM) 0.21% and 0.27% and 0.11%; (compound 0.03 µM) 0.16% and 0.14% and 0.42%; (compound 0.0949 µM) 0.15% and 0.14% and 0.12%; (compound 0.3 µM) 0.19% (2×) and 0.21%. For the same compound, the IC50 (curve of compound) was 2.79 nM and 5.76 nM and 1.85 nM.
`CCN(c1cc(-c2ccc(CN3CCOCC3)cc2)cc(C(=O)NCc2c(C)cc(C)[nH]c2=O)c1C)C1CCOCC1` + CC(CO)NC(=O)c1cc(-c2ccc(Cl)cc2)nn(-c2cnn(C)c2)c1=O: the IC50 was > 3000 nM under setting [1]; > 3000 nM under setting [2]; > 3000 nM under setting [3]; > 3000 nM under setting [4]; > 3000 nM under setting [5]. Moreover, the viability, T/C is, setting by setting: under setting [6], 94.1%; under setting [7], 102%; under setting [8], 94.3%; under setting [9], 95.7%; under setting [10], 86.2%; under setting [11], 88.5%. The viability, T/C by setting is: under setting [12], 112%; under setting [13], 109%; under setting [14], 100%; under setting [15], 95.5%; under setting [16], 92.1%; under setting [17], 92.6%. Moreover, the viability, T/C is 100% under setting [18]; 105% under setting [19]; 114% under setting [20]; 94.5% under setting [21]; 91.9% under setting [22]; 88.8% under setting [23]. Further, the viability, T/C runs as follows: under setting [24], 98.6%; under setting [25], 95.2%; under setting [26], 103%; under setting [27], 94.1%; under setting [28], 86%; under setting [29], 77.4%. The viability, T/C under setting [30] is 96.5%; the viability, T/C under setting [31] is 102%; the viability, T/C under setting [32] was 83.5%; the viability, T/C under setting [33] was 92.8%; the viability, T/C under setting [34] was 103%; the viability, T/C under setting [35] was 80.7%.
For the compound `O=C(C=Cn1cnc(-c2cc(C(F)(F)F)cc(C(F)(F)F)c2)n1)NNc1cnccn1` + CC(CO)NC(=O)c1cc(-c2ccc(Cl)cc2)nn(-c2cnn(C)c2)c1=O, the IC50 is, setting by setting: under setting [1], 409 nM; under setting [2], 279 nM; under setting [3], 326 nM; under setting [4], 274 nM; under setting [5], 260 nM. For the same compound, the viability, T/C runs as follows: under setting [6], 106%; under setting [7], 124%; under setting [8], 141%; under setting [9], 55.2%; under setting [10], 40.1%; under setting [11], 32.1%. In addition, the viability, T/C was 112% under setting [12]; 125% under setting [13]; 149% under setting [14]; 44.6% under setting [15]; 36.8% under setting [16]; 33% under setting [17]. In addition, the viability, T/C is, setting by setting: under setting [18], 121%; under setting [19], 136%; under setting [20], 159%; under setting [21], 51.1%; under setting [22], 37.8%; under setting [23], 31.1%. For the same compound, the viability, T/C reads like this: under setting [24], 108%; under setting [25], 123%; under setting [26], 152%; under setting [27], 43.4%; under setting [28], 41.1%; under setting [29], 28.6%. Besides, the viability, T/C reads like this: under setting [30], 100%; under setting [31], 134%; under setting [32], 144%; under setting [33], 39.2%; under setting [34], 33.6%; under setting [35], 31.1%.
